Measurements reported in PubChem BioAssay (NCI).
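Where inhibition never reached the appropriate level, the endpoint shown equals the highest concentration tested. Otherwise, values were interpolated linearly from a five-concentration, 48-hour dose response in 96-well plates. GI50: concentration for 50% inhibition of growth. The concentration for full growth arrest is given as TGI.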

Experiments:
Experiment in all cases: NCI anticancer screen, dose series, 48 h
RPMI-8226 leukemia = tested on: RPMI-8226 leukemia
HL-60(TB) leukemia = tested on: HL-60(TB) leukemia
SK-OV-3 ovarian = tested on: SK-OV-3 ovarian
UO-31 renal = tested on: UO-31 renal
KM12 colon = tested on: KM12 colon
OVCAR-5 ovarian = tested on: OVCAR-5 ovarian
SF-539 CNS = tested on: SF-539 CNS
RXF 393 renal = tested on: RXF 393 renal
SK-MEL-28 melanoma = tested on: SK-MEL-28 melanoma
HOP-62 NSCLC = tested on: HOP-62 NSCLC

Structure (SMILES) | GI50 (RPMI-8226 leukemia) [µM] | TGI (RPMI-8226 leukemia) [µM] | GI50 (HL-60(TB) leukemia) [µM] | TGI (HL-60(TB) leukemia) [µM] | GI50 (SK-OV-3 ovarian) [µM] | TGI (SK-OV-3 ovarian) [µM] | GI50 (UO-31 renal) [µM] | TGI (UO-31 renal) [µM] | GI50 (KM12 colon) [µM] | TGI (KM12 colon) [µM] | GI50 (OVCAR-5 ovarian) [µM] | TGI (OVCAR-5 ovarian) [µM] | GI50 (SF-539 CNS) [µM] | TGI (SF-539 CNS) [µM] | GI50 (RXF 393 renal) [µM] | TGI (RXF 393 renal) [µM] | GI50 (SK-MEL-28 melanoma) [µM] | TGI (SK-MEL-28 melanoma) [µM] | GI50 (HOP-62 NSCLC) [µM] | TGI (HOP-62 NSCLC) [µM]
COc1cc2nc(Nc3cccc(F)c3)nc(Nc3cc(C)[nH]n3)c2cc1OC | 1.69 | 5.6 | 1.93 | 4.46 | 1.86 | 3.37 | 1.77 | 3.29 | 1.64 | 3.32 | 1.76 | 3.2 | 1.78 | 3.18 | 1.81 | 3.22 | 1.77 | 3.2 | 1.87 | 3.62
COc1ccc(NC(=O)c2sc3nc(C)c(C(O)c4ccccc4)cc3c2N)cc1 (stereo not drawn) | 2.4 | 14.4 | 2.76 | 10.3 | 4.59 | > 100 | 2.62 | > 100 | 2 | 23.5 | 4.74 | > 100 | 2.24 | 6.65 | 2.25 | 49.1 | 6.93 | > 100 | 3.67 | > 100
Nc1ncnc2c1ncn2C1OC(CO)=CC1O (stereo not drawn) |  | > 37.5 |  | > 37.5 |  | > 37.5 |  | > 37.5 |  | > 37.5 |  | > 37.5 |  | > 37.5 |  | > 37.5 |  | > 37.5 |  | > 37.5
O=C(O)CC/C(=N\Nc1nsc2ccccc12)c1ccc(Cl)cc1 |  | 45.9 |  | 59.9 |  | 89.6 |  | > 67.1 |  | > 100 |  | > 100 |  | > 89.8 |  | > 53.7 |  | 37.4 |  | > 63.5
Cc1ccc(C)c(-c2csc(Nc3ccc(C)c(C)c3)n2)c1 | > 100 | > 100 | > 100 | > 100 | > 100 | > 100 | > 100 | > 100 | > 100 | > 100 | > 100 | > 100 | 44.6 | > 100 | 24.2 | > 100 | > 100 | > 100 | 36.8 | > 100
C[C@@H]1C=C2C(=O)O[C@@H]3CC[C@H](C1)[C@]23O | 2.93 | 10.7 |  | 5.71 | 15.5 | 64.3 | 3.74 | 16.7 | 21.8 | 61.6 | 2.82 | 10.8 | 3.18 | 11.9 |  | 7.97 | 6.17 | 25.8 | 17.8 | 63.1
Cc1cc(Cl)cc2c1NC(=O)C2(O)C(C)C(=O)c1ccc(Cl)cc1 (stereo not drawn) |  | 98.2 |  | 43.5 |  | > 100 |  | > 100 |  | > 100 |  | > 100 |  | > 100 |  | 89.8 |  | > 100 |  | > 100
CCOC(=O)c1cn(Cc2ccccc2)c(=O)n1Cc1ccccc1 |  | > 100 |  | > 100 |  | > 100 |  | > 100 |  | > 100 |  | > 100 |  | > 100 |  | > 100 |  | > 100 |  | > 100
